One series has as its target jack bean urease (EC 3.5.1.5) (Canavalia ensiformis, UniProt P07374). Put plainly: Urease inhibition method. In kind it is biochemical.
Conditions: not given
Chain of jack bean urease (EC 3.5.1.5) (P07374 whole entry, looked up): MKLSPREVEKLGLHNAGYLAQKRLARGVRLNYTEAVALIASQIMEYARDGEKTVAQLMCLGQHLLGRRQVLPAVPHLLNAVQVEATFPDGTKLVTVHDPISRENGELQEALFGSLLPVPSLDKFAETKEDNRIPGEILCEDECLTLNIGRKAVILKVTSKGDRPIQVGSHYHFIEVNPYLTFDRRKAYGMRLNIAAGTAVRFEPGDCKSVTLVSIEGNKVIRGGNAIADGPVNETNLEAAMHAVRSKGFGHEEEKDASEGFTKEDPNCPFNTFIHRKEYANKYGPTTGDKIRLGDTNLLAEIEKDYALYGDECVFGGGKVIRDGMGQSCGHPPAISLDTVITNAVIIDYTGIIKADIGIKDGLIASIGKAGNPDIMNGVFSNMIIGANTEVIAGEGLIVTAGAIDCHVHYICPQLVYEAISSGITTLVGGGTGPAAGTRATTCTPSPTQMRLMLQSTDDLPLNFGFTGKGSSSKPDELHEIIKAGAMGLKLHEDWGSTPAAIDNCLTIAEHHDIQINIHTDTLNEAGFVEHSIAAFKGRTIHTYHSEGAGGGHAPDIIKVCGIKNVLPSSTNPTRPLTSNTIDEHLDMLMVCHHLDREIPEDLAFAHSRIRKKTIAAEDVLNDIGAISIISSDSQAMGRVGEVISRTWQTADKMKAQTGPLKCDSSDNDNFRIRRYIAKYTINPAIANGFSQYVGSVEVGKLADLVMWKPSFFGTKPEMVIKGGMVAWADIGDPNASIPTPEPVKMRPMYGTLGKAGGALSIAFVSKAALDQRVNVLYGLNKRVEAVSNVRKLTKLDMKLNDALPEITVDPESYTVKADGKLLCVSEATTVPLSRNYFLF
For the molecule `COc1ccc(N2C(=O)c3ccccc3C2C2C(=O)NC(=O)NC2=O)cc1` (stereo not shown) [5b, 5-(2-(4-Methoxyphenyl)-3-oxoisoindolin-1-yl) Barbituric Acid], the IC50 was found to be 820 ± 30 nM. On to `O=C1NC(=O)C(C2c3ccccc3C(=O)N2c2ccc(Cl)c(Cl)c2)C(=O)N1` (stereo not shown) [5f, 5-(2-(3,4-Dichlorophenyl)-3-oxoisoindolin-1-yl) Barbituric Acid], for which inhibition was half-maximal at 960 ± 10 nM (IC50). For `O=C1NC(=O)C(C2c3ccccc3C(=O)N2c2cc(Cl)cc(Cl)c2)C(=O)N1` (stereo not shown) [5j, 5-(2-(3,5-Dichlorophenyl)-3-oxoisoindolin-1-yl) Barbituric Acid], the IC50 is 1780 ± 100 nM. Take `COc1ccc(N2C(=O)c3ccccc3C2C2C(=O)NC(=S)NC2=O)cc1` (stereo not shown) [5n, 5-(2-(4-Methoxyphenyl)-3-oxoisoindolin-1-yl)-2-thiobarbituric Acid]: 1340 ± 10 nM corresponded to half-maximal inhibition (IC50). On the same count and under the same terms, under `O=C1NC(=O)C(C2c3ccccc3C(=O)N2c2cccc(Cl)c2)C(=O)N1` (stereo not shown) [5i, 5-(2-(3-Chlorophenyl)-3-oxoisoindolin-1-yl) Barbituric Acid] stands 1220 ± 50 nM; under `O=C1NC(=O)C(C2c3ccccc3C(=O)N2c2ccc(F)cc2)C(=O)N1` (stereo not shown) [5h, 5-(2-(4-Fluorophenyl)-3-oxoisoindolin-1-yl) Barbituric Acid], 1280 ± 40 nM. The molecule `O=C1NC(=O)C(C2c3ccccc3C(=O)N2c2ccc(Br)cc2)C(=O)N1` (stereo not shown) [5e, 5-(2-(4-Bromophenyl)-3-oxoisoindolin-1-yl) Barbituric Acid] returned an IC50 of 960 ± 10 nM. In turn, `O=C1NC(=O)C(C2c3ccccc3C(=O)N2c2ccccc2)C(=O)N1` (stereo not shown) [5a, 5-(3-Oxo-2-phenylisoindolin-1-yl) Barbituric Acid] came in with an IC50 of 1850 ± 60 nM. Molecule `COc1ccc(N2C(=O)c3ccccc3C2C2C(=O)N(C)C(=O)N(C)C2=O)cc1` (stereo not shown) [5m, 1,3-Dimethyl-5-(2-(4-methoxyphenyl)-3-oxoisoindolin-1-yl) Barbituric Acid] displayed an IC50 of 970 ± 10 nM.

For the molecule `O=C1NC(=O)C(C2c3ccccc3C(=O)N2c2ccc(Cl)cc2)C(=O)N1` (stereo not shown) [5c, 5-(2-(4-Chlorophenyl)-3-oxoisoindolin-1-yl) Barbituric Acid], the midpoint of inhibition, the IC50, lay at 1250 ± 50 nM.

The molecule `CC(C)N1C(=O)c2ccccc2C1C1C(=O)NC(=O)NC1=O` (stereo not shown) [5l, 5-(2-Isopropyl-3-oxoisoindolin-1-yl) Barbituric Acid] had an IC50 of 1850 ± 60 nM. In the case of `CC(C)CN1C(=O)c2ccccc2C1C1C(=O)NC(=O)NC1=O` (stereo not shown) [5k, 5-(2-Isobutyl-3-oxoisoindolin-1-yl) Barbituric Acid], 1620 ± 50 nM corresponded to half-maximal inhibition (IC50). As for `Cc1ccc(N2C(=O)c3ccccc3C2C2C(=O)NC(=O)NC2=O)cc1` (stereo not shown) [5g, 5-(3-Oxo-2-(p-tolyl) Isoindolin-1-yl) Barbituric Acid], the IC50 was found to be 1090 ± 70 nM.

In turn, `Cc1ccc(N2C(=O)c3ccccc3C2C2C(=O)NC(=O)NC2=O)cc1C` (stereo not shown) [5d, 5-(2-(3,4-Dimethylphenyl)-3-oxoisoindolin-1-yl) Barbituric Acid] showed an IC50 of 1070 ± 20 nM.

Still in this series, the particulars now being: read-out: IC50 ± SEM; jack bean urease; triplicate, mean ± SEM.
Take `NC(N)=S` [thiourea, reference compound]: the concentration for half-maximal inhibition (IC50) amounted to 22000 ± 1200 nM.

Tested on in the next series: not listed separately
Description: Solubility in solvents for NMR. It counts as physicochemical.
Conditions: not given
Consider `CN1C(=O)C(C2OC(=O)c3ccccc32)C(=O)N(C)C1=O` (stereo not shown) [3b, 1,3-Dimethyl-5-(3-oxo-1,3-dihydroisobenzofuran-1-yl) Barbituric Acid], for which the solubility in solvents entry was “soluble in CHCl3”.

One may read the IC50 as the point on the concentration scale where inhibition reaches its midpoint.

Source of the values: paper PMC9202281 (ACS Omega, 2022).
